Source: ChEMBL document CHEMBL1139468, “Virtual screening of novel CB2 ligands using a comparative model of the human cannabinoid CB2 receptor” (J Med Chem, 2005)
Calls of active or inactive are those of the source. The calls are words filed in the database; no cut-off is given here.

Assays:
Cannabinoid receptor 2 = Cannabinoid receptor 2 (Homo sapiens, UniProt P34972); test: Agonist activity at human CB2 receptor transfected in CHO cells by [35]GTPgamma binding assay; assay type: cell-based
[1] = target: Cannabinoid receptor 1 (Rattus norvegicus) (UniProt P20272); test: Activity at CB1 receptor in rat cerebellar membrane by [35]GTPgamma binding assay; assay type: functional, cell membranes; conditions: Cerebellum
[2] = target: T1, Fatty-acid amide hydrolase 1 (Homo sapiens) (UniProt O00519); test: Inhibition of FAAH
T1 sequence (whole entry): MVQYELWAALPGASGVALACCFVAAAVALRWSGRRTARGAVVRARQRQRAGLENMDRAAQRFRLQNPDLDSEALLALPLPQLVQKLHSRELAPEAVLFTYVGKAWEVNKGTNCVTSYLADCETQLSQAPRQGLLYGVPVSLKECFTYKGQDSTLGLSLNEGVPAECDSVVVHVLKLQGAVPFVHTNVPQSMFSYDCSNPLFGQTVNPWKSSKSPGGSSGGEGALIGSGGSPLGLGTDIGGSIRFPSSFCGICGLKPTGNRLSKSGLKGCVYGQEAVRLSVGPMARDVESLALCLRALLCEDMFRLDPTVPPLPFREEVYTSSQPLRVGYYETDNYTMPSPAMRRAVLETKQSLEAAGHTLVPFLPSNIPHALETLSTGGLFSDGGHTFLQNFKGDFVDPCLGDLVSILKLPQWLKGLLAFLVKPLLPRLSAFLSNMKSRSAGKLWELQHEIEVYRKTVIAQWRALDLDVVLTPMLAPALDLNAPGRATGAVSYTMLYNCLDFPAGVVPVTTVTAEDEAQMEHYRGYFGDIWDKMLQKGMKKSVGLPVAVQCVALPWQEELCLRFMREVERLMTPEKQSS

[3] = Inhibition of methionine gamma-lyase

Chain of Cannabinoid receptor 2 (P34972 whole entry): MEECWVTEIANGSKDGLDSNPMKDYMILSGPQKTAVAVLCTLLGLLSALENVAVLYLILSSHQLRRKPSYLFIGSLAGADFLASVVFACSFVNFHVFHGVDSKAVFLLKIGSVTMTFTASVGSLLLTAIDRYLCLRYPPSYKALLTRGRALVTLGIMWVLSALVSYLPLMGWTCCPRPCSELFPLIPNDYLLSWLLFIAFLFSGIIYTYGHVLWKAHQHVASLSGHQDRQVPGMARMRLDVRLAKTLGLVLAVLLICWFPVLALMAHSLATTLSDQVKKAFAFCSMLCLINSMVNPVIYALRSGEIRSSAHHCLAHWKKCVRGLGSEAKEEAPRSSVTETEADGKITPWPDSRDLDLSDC
Chain of Cannabinoid receptor 1 (Rattus norvegicus) (P20272 whole entry): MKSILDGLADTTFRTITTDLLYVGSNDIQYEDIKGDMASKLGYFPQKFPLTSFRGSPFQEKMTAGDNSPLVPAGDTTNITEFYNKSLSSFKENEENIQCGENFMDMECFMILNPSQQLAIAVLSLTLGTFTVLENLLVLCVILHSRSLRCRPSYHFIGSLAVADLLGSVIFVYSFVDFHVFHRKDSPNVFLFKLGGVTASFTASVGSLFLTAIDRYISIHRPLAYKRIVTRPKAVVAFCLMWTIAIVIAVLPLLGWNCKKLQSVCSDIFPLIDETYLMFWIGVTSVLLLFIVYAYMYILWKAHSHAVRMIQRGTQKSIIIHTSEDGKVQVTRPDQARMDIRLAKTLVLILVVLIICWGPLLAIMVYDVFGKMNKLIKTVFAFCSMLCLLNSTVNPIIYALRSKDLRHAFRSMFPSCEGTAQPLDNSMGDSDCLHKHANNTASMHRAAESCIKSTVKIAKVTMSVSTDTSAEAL

Structure (SMILES)	Emax (Cannabinoid receptor 2)	EC50 (Cannabinoid receptor 2)	Activity [1]	Activity [2]	Activity [3]
CCCCCCC(C)(C)c1cc(O)c2c(c1)OC(C)(C)[C@H]1CC=C(CO)C[C@H]21	103%	–	–	–	–
O=C(c1cccc(C(F)(F)F)c1)c1nccc2ccccc12	53%	5.01 µM	inactive	inactive	inactive
